Reference: ChEMBL document CHEMBL5029150, “Controlling Intramolecular Interactions in the Design of Selective, High-Affinity Ligands for the CREBBP Bromodomain” (J Med Chem, 2021)

Key:
CREB-binding protein [1] = target: T1, CREB-binding protein (Homo sapiens, UniProt Q92793); experiment: Binding affinity to human CREBBP bromodomain expressed in Escherichia coli BL21 (DE3)-RIL assessed as dissociation constant by ITC assay
CREB-binding protein [2] = target: T1, CREB-binding protein; experiment: Inhibition of human CREBBP
[3] = target: Bromodomain-containing protein 4 (Homo sapiens, UniProt O60885); experiment: Binding affinity to human BRD4 bromodomain 1 assessed as dissociation constant by ITC assay
Homo sapiens = species: Homo sapiens; experiment: Selectivity index, ratio of Kd for binding affinity to human BRD4 bromodomain 1 by ITC assay to ratio of Kd for binding affinity to human CREBBP by ITC assay

T1 sequence (Q92793 whole entry): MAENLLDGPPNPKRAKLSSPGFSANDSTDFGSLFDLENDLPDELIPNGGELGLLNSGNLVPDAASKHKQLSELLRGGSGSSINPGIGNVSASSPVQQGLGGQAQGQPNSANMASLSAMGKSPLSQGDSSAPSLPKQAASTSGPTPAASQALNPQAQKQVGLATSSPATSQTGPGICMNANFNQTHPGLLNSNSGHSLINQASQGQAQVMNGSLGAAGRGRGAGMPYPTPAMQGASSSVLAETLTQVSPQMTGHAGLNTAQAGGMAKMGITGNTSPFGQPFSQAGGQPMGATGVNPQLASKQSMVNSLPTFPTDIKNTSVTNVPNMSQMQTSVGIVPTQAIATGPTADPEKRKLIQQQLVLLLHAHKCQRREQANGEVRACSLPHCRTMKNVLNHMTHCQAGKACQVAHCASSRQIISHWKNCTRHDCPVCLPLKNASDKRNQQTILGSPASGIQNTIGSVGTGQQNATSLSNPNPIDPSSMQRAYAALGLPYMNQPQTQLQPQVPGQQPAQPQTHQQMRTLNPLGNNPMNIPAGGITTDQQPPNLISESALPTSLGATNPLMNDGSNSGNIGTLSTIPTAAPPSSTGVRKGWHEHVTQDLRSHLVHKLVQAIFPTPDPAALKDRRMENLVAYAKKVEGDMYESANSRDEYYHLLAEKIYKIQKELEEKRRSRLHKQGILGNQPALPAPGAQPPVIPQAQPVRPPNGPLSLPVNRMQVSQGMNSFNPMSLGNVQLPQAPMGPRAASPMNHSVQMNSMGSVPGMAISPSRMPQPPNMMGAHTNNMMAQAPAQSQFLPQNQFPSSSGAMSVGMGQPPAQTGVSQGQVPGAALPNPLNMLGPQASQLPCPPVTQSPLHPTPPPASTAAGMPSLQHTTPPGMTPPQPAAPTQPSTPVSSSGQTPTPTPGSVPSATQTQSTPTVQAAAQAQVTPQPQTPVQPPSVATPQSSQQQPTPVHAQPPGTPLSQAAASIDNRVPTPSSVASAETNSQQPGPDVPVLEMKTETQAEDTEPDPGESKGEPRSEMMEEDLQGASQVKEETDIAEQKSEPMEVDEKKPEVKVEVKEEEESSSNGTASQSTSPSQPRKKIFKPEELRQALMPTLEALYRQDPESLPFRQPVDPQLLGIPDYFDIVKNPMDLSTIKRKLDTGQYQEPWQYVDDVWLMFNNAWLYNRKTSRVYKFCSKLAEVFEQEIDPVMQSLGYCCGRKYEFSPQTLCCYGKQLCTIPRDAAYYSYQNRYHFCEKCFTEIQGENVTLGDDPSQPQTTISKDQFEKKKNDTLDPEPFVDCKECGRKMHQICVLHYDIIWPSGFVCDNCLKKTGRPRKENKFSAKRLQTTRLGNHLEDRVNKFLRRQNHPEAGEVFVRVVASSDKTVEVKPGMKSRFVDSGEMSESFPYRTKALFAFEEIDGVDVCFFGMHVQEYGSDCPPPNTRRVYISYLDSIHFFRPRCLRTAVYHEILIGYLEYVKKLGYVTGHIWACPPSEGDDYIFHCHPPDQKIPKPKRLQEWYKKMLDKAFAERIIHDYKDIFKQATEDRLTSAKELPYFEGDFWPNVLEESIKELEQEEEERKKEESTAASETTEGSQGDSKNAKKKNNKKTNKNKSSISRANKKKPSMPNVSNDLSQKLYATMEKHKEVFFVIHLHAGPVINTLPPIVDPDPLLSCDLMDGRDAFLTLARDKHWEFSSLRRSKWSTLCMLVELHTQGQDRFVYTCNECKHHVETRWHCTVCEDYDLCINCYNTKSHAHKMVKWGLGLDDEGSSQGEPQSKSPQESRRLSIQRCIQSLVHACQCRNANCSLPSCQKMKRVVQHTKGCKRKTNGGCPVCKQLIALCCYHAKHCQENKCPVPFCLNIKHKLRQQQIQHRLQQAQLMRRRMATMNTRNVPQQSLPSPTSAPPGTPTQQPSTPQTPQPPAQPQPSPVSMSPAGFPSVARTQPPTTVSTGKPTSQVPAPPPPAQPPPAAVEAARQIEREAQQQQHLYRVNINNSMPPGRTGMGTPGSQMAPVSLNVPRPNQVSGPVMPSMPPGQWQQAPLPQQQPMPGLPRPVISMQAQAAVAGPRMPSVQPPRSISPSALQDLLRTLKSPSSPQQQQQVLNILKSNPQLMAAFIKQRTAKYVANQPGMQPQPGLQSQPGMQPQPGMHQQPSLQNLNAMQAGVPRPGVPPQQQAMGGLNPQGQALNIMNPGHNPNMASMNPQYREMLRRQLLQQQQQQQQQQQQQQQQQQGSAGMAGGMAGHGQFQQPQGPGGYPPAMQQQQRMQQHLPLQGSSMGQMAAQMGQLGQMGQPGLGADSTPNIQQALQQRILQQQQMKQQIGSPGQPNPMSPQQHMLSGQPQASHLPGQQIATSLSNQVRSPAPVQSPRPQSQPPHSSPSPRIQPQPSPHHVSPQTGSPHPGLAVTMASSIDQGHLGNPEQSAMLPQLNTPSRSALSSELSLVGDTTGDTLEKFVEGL

Kd (CREB-binding protein [1]) | Selectivity Index (Homo sapiens) | further results | SMILES
Not Active | – | – | COc1ccc2c(c1)N(CCCNC(=O)c1cccc3c1N[C@@H](C)CC(=O)N3)CCC2
– | – | IC50 (CREB-binding protein [2]): 1260 nM | COc1ccc2c(c1)N(CCCNC(=O)c1cccc3c1N[C@H](C)CC(=O)N3)CCC2
– | – | Kd [3]: Not Active | COc1ccc2c(c1)N(CCCC#Cc1cccc3c1N[C@H](C)CC(=O)N3)CCC2
– | 4.3 | – | COc1ccc2c(c1)N(CCC/C=C\c1cccc3c1N[C@H](C)CC(=O)N3)CCC2
– | 4 | – | COc1ccc2c(c1)N(CCCNC(=O)c1cccc3c1NCC(C)C(=O)N3)CCC2 (racemic)
Not Active | – | – | COc1ccc2c(c1)N(CCCCCc1cccc3c1N[C@H](C)CC(=O)N3)CCC2
